{"source": "patent US20140288013A1", "about": "“METHODS AND COMPOSITIONS FOR THE MANAGEMENT OF CANCER USING 2-DG AND AN IGF-IR INHIBITOR” (priority 2011, published 2014)", "key": {"[1]": {"tested_on": "H157", "test": "MTS assay, IC50 in LKB1-null NSCLC cell line H157", "type": "cell-based", "settings": "Homo sapiens", "from_the_text": "(§1) 2000 cells were seed in each well of a 96-well plate, and exposed to BMS754807 or 2-DG at indicated concentration for 48 hrs.\n(§2) Analysis focused on NSCLC cell lines with LKB1 inactivation mutation. A549 and H460 both contain a Q37 to nonsense mutation, and H157 contains exon 2 and 3 deletion. All these mutations results in the loss of LKB1 protein function. MTS assay was used to measure the IC50 of BMS754807 and 2-DG in these cells (FIG. 1)."}, "[2]": {"molecular_target": "IGF-I and IGF-binding protein 3 (IGFBP3) (Homo sapiens, UniProt P05019+P17936)", "sequence (P17936 28-291, species assumed)": "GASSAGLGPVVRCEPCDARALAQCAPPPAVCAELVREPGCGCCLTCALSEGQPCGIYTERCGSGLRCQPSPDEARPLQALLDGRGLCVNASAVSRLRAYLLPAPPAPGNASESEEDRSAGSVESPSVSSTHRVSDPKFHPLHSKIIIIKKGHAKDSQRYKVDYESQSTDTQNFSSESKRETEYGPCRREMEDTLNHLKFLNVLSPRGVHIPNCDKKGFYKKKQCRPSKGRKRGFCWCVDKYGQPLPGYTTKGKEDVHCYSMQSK", "sequence (P05019 49-118 limits assumed, species assumed)": "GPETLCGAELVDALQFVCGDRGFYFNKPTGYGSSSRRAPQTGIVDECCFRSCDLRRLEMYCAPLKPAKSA", "settings": "2-DG treatments; cited from earlier work"}, "[3]": {"tested_on": "H460", "test": "MTS assay, IC50 in LKB1-null NSCLC cell line H460", "type": "cell-based", "settings": "Homo sapiens", "from_the_text": "as §1, §2"}, "[4]": {"tested_on": "A549", "test": "MTS assay, IC50 in LKB1-null NSCLC cell line A549", "type": "cell-based", "settings": "Homo sapiens", "from_the_text": "as §1, §2"}, "[5]": {"tested_on": "H460", "test": "Combination index analysis of cell proliferation, H460", "type": "cell-based", "settings": "Homo sapiens"}, "[6]": {"tested_on": "AKT", "settings": "through IGF1R and PI3K; cited from earlier work"}, "[7]": {"tested_on": "H157", "test": "Combination index analysis of cell proliferation, H157", "type": "cell-based", "settings": "Homo sapiens"}, "[8]": {"tested_on": "AKT", "test": "2-DG induced AKT phosphorylation in LKB1-null NSCLC cell lines", "type": "cell-based", "settings": "for Akt phosphorylation induced by 2-DG: FIG. 2, cell line not named at the place; for 2-DG induced AKT phosphorylation: pre-incubated with 10 μM BMS754807 for 30 minutes, then 25 mM 2-DG", "experimental": "Whether 2-DG induced AKT phosphorylation can be blocked by BMS754807 was determined. LKB1-null NSCLC cell lines was pre-incubated with 10 μM of BMS754807 for 30 minutes, and then stimulated with 25 mM 2-DG to induce phosphorylation. BMS754807 blocked 2-DG induced IGF1R and AKT phosphorylation in H460, and H157 cells."}, "[9]": {"tested_on": "IGF1R", "test": "2-DG induced IGF1R phosphorylation in LKB1-null NSCLC cell lines", "type": "cell-based"}}, "note": "Where two headings read alike, the source gives them in different places.", "data": [{"compound": "O=CC[C@@H](O)[C@H](O)[C@H](O)CO", "note": "[2-DG, 2-Deoxyglucose]", "values": [{"measurement": "IC50", "setting": "[1]; NCI-H157, H157, MTS assay, 48 hrs, read-out: IC50", "result": 21.8, "unit": "mM"}, {"measurement": "binding between IGF-I and IGFBP3", "setting": "[2]", "result": "disrupted"}, {"measurement": "IC50", "setting": "[3]; NCI-H460, H460, MTS assay, 48 hrs, read-out: IC50", "result": 14.1, "unit": "mM"}, {"measurement": "IC50", "setting": "[4]; A549, MTS assay, 48 hrs, read-out: IC50", "result": 15.7, "unit": "mM"}, {"measurement": "viability at 2500 µM", "setting": "[5]; NCI-H460, 2-DG 2.5 mM, read-out: FA2-DG (fraction growth inhibition by 2-DG alone)", "result": 95, "unit": "%"}, {"measurement": "viability at 5000 µM", "setting": "[5]; NCI-H460, 2-DG 5.0 mM, read-out: FA2-DG (fraction growth inhibition by 2-DG alone)", "result": 81, "unit": "%"}, {"measurement": "viability at 10000 µM", "setting": "[5]; NCI-H460, 2-DG 10.0 mM, read-out: FA2-DG (fraction growth inhibition by 2-DG alone)", "result": 71, "unit": "%"}, {"measurement": "activation of prosurvival oncoprotein AKT", "setting": "[6]", "result": "activates"}, {"measurement": "viability at 2500 µM", "setting": "[7]; NCI-H157, 2-DG 2.5 mM, read-out: FA2-DG (fraction growth inhibition by 2-DG alone)", "result": 93, "unit": "%"}, {"measurement": "viability at 5000 µM", "setting": "[7]; NCI-H157, 2-DG 5.0 mM, read-out: FA2-DG (fraction growth inhibition by 2-DG alone)", "result": 80, "unit": "%"}, {"measurement": "viability at 10000 µM", "setting": "[7]; NCI-H157, 2-DG 10.0 mM, read-out: FA2-DG (fraction growth inhibition by 2-DG alone)", "result": 69, "unit": "%"}]}, {"compound": "CC1(C(=O)Nc2ccc(F)nc2)CCCN1c1nc(Nc2cc(C3CC3)[nH]n2)c2cccn2n1", "note": "(stereo not shown) [BMS-754807, 1-(4-((5-cyclopropyl-1H-pyrazol-3-yl)amino)pyrrolo[2,1-f][1,2,4]triazin-2-yl)-N-(6-fluoropyridin-3-yl)-2-methylpyrrolidine-2-carboxamide]", "values": [{"measurement": "IC50", "setting": "[1]; NCI-H157, 48 h", "result": 0.0108, "unit": "mM"}, {"measurement": "Akt phosphorylation induced by 2-DG", "setting": "[8]", "result": "block"}, {"measurement": "Akt phosphorylation induced by 2-DG", "setting": "[8]; listed as BMS754807", "result": "blocked"}, {"measurement": "2-DG induced AKT phosphorylation", "setting": "[8]; H157 cells", "result": "blocked"}, {"measurement": "2-DG induced AKT phosphorylation", "setting": "[8]; H460 cells", "result": "blocked"}, {"measurement": "IC50", "setting": "[3]; NCI-H460, 48 h", "result": 0.00325, "unit": "mM"}, {"measurement": "IC50", "setting": "[4]; A549, 48 h", "result": 0.0166, "unit": "mM"}, {"measurement": "viability at 5 µM", "setting": "[5]; NCI-H460, BMS-754807 5.0 uM, read-out: FABMS-754807 (fraction growth inhibition by BMS-754807 alone)", "result": 80, "unit": "%"}, {"measurement": "viability at 10 µM", "setting": "[5]; NCI-H460, BMS-754807 10.0 uM, read-out: FABMS-754807 (fraction growth inhibition by BMS-754807 alone)", "result": 69, "unit": "%"}, {"measurement": "2-DG induced IGF1R phosphorylation", "setting": "[9]; FIG. 2, cell line not named at the place", "result": "blocked"}, {"measurement": "2-DG induced IGF1R phosphorylation", "setting": "[9]; H157 cells, pre-incubated with 10 μM BMS754807 for 30 minutes, then 25 mM 2-DG", "result": "blocked"}, {"measurement": "2-DG induced IGF1R phosphorylation", "setting": "[9]; H460 cells, pre-incubated with 10 μM BMS754807 for 30 minutes, then 25 mM 2-DG", "result": "blocked"}, {"measurement": "viability at 5 µM", "setting": "[7]; NCI-H157, BMS-754807 5.0 uM, read-out: FABMS-754807 (fraction growth inhibition by BMS-754807 alone)", "result": 99, "unit": "%"}, {"measurement": "viability at 10 µM", "setting": "[7]; NCI-H157, BMS-754807 10.0 uM, read-out: FABMS-754807 (fraction growth inhibition by BMS-754807 alone)", "result": 82, "unit": "%"}]}]}
